In BindingDB's records for doi:10.1021/jm0409019 (Institute of Chemical Sciences and Engineering, 2005):

Key:
[1] = molecular target: alpha-mannosidase (Canavalia ensiformis); test: Concentration of compound inhibiting alpha-Mannosidase isolated from Jack bean
[2] = molecular target: alpha-mannosidase (Canavalia ensiformis); test: Binding affinity towards alpha-Mannosidase isolated from Jack bean
[3] = molecular target: alpha-mannosidase (Canavalia ensiformis); test: Binding affinity towards alpha-Mannosidase isolated from jack bean
[4] = molecular target: alpha-mannosidase (Canavalia ensiformis); test: Inhibition of alpha-Mannosidase isolated from Jack bean

Compound	IC50 [1] [µM]	Ki [2] [µM]	Ki [3] [µM]	IC50 [4] [µM]
O[C@H]1[C@@H](O)CN[C@@H]1CN[C@@H](c1ccccc1)[C@H](O)c1ccccc1 [(2R,3R,4S)-2-[((R)-Phenyl-1-(S)-2-hydroxy-2-phenyl-ethylamino)-methyl]-pyrrolidine-3,4-diol]	128			
O[C@H]1[C@@H](O)CN[C@@H]1CNC1CCc2ccccc21 (stereo partly drawn) [(2R,3R,4S)-2-((R)-Indan-1-ylaminomethyl)-pyrrolidine-3,4-diol]	17	2.3		
O[C@H]1[C@@H](O)CN[C@@H]1CN[C@H](c1ccccc1)[C@@H](O)c1ccccc1 [(2R,3R,4S)-2-[((S)-Phenyl-1-(R)-2-hydroxy-2-phenyl-ethylamino)-methyl]-pyrrolidine-3,4-diol]	110			
O=C(NCC(NC[C@H]1NC[C@H](O)[C@@H]1O)c1ccccc1)c1cccc(Br)c1 (stereo partly drawn) [3-Bromo-N-{2-[((2R,3R,4S)-3,4-dihydroxy-pyrrolidin-2-ylmethyl)-amino]-2-phenyl-ethyl}-benzamide]	89			
O[C@H]1[C@@H](O)CN[C@@H]1CNC(COCc1ccccc1)c1ccccc1 (stereo partly drawn) [(2R,3R,4S)-2-[((R)-2-Benzyloxy-1-phenyl-ethylamino)-methyl]-pyrrolidine-3,4-diol]			16	58
OCC(NC[C@H]1N[C@H](CO)[C@H](O)[C@@H]1O)c1ccccc1 (stereo partly drawn) [(2R,3S,4R,5R)-2-Hydroxymethyl-5-[((R)-2-hydroxy-1-phenyl-ethylamino)-methyl]-pyrrolidine-3,4-diol]	4.2	1.35		
